In patent publication US11649396B2, “Associative copolymers with hydrophobic quaternized (meth)acrylamide and (meth)acrylic acid derivatives” (BASF SE, priority 2018, dated 2023):

Test: Solubility tests of monomer 1 with auxiliary surfactants (additives) in the monomer solution
Assay type: physicochemical
Settings: recipe 27 mol % sodium acrylate, 72.9 mol % acrylamide, 0.1 mol % 1; for Result (solubility of monomer 1 with additive): additive 2-20 eq relative to 1
Description: In order to solubilize monomer 1 the monomer was first dissolved in ethanol and then added to the monomer solution.
These tests were done in first instance with 0.1 mol % of 1.

| Compound | Result (solubility of monomer 1 with additive) | Result (solubility of monomer 1 without additive) (no additive) |
| --- | --- | --- |
| CCCCCCCCCCCCN(CCC(=O)[O-])CCC(=O)O.[Na+] [Deriphat 160 C, Sodium-N-lauryl-R-iminodipropionate] | Not soluble** |  |
| C=C(C)C(=O)OCCC[N+](C)(C)CCCCCCCCCCCC [Monomer 1] |  | Not soluble** |
| CCCCCCCCCCCCCCC(O)C[N+](C)(C)CCO.[Cl-] (stereo not shown) [Dehyquart E-CA, (2-hydroxyethyl)(2-hydroxyhexadecyl)dimethylammonium chloride] | Not soluble** |  |
| CCCCCCCCCCCCCC[N+](C)(C)C.[Br-] [Monomer C14TAB, Tetradecyltrimethylammonium bromide, reference compound] | Not soluble** |  |
